Test results from patent publication US9493539B2, “Peptides associated with HLA-DR MHC class II molecules involved in autoimmune diseases” (LONDON HEALTH SCIENCES CENTRE RESEARCH INC., priority 2003, dated 2016).
Square brackets hold non-standard residues; d marks the D form. Ends that are not written are not given here. Cit = NC(=O)NCCC[C@H](N)C(=O)O

Key:
[1] = tested on: draining lymph node cells; experiment: IFN-γ production by ELISA after in vitro challenge with immunizing peptide; type: cell-based, mouse; details: DR4-IE tg mice immunized with the peptide
Description: (§1) DR4 tg mice were immunized intradermally at the interior side of both hind legs with 100 μl of peptide (1 μg/μl) emulsified in CFA (Difco Laboratories, Detroit, Mich.) in a 1:1 volume ratio. After 10 days, mice were sacrificed and their draining lymph nodes were removed for in vitro proliferation and cytokine assays.
(§2) Cell suspensions were prepared from the draining lymph nodes and cultured in 96-well plates at a concentration of 4×10^5 cells/well in the presence or absence of peptide antigen for 4 days. Anti-DR antibody (BD PharMingen, Mississauga, ON) was added to some cultures (1 μg/ml) to confirm DR restricted T cell responses as described previously (Andersson E C, Hansen B E, Jacobsen H, Madsen L S, Andersen C B, Engberg J, Rothbard J B, McDevitt G S, Malmstrom V, Holmdahl R, Svejgaard A, Fugger L. 1998. Definition of MHC and T cell receptor contacts in the HLA-DR4 restricted immunodominant epitope in type II collagen and characterization of collagen-induced arthritis in HLA-DR4 and human CD4 transgenic mice. Proc. Natl. Acad. Sci. USA. 95:7574). Culture supernatants were removed after 78 hrs to test IFN-γ production by ELISA (BD PharMingen, Mississauga, ON) as described previously (Hill, J. A., Wang, D., Jevnikar, A. M., Cairns, E., Bell, D. A. 2002. The relationship between predicted peptide-MHC class II affinity and T cell activation in a HLA-DRβ1*0401 MHC class II mouse model. Arthritis Res. 5:R40). Cytokine production was measured in duplicate and represents the average antigen specific cytokine production (cytokine production in control samples+2 SD were subtracted from the peptide specific cytokine production)±SD. Eighteen hours before culture termination, 1 μCi of [^3H] thymidine (ICN Biomedicals, Montreal, PQ) was added to each well to assess T cell proliferation. Proliferation experiments were conducted in triplicate and results are presented as average proliferation in cpm±SD or stimulation index (cpm of experimental sample/cpm of control sample)±SEM.

[2] = tested on: draining lymph node cells; experiment: T cell proliferation recall response ([3H] thymidine) after peptide immunization of DR4-IE tg mice; type: cell-based, mouse; details: for T cell proliferative response: DR4-IE tg mice immunized with the peptide, 10 days later cells challenged in vitro with same peptide; for proliferative response in presence of anti-DR antibody: immunizing peptide plus anti-DR antibody
Description: as §1, §2

[3] = tested on: shared epitope negative (DRB1*0301, *0701, *0802, *1101, *1302); experiment: Peptide-binding (competition) assay to purified MHC class II; set-up: species or system human
Description: (§3) Peptide binding affinity to purified HLA-DRB1*0101, *0401, *0404, *0301, *0701, *0802, *1101, and *1302 molecules was determined relative to radio-labelled peptide probes as described previously (Southwood S, Sidney J, Kondo A, del Guercio M F, Appella E, Hoffman S, Kubo R T, Chesnut R W, Grey H M, Sette A. 1998. Several common HLA-DR types share largely overlapping peptide binding repertoires. J. Immunol. 160:3363). The nM concentration of unlabelled vimentin peptide necessary for 50% inhibition of the labelled peptide to the purified HLA-DRB1 molecules (IC50) was used as an approximation of the affinity of interaction ([…]). Results are expressed as the inverse of the IC50 values measured in nM.

[4] = molecular target: HLA-DRB1*0404 (Homo sapiens, UniProt P01903+P01911, A100R/A169T/F76Y/I96L/K127E/L162R/M171V/N62H/P40V/Q125Y/R42H/S133A/S149N/S66Y/V209L/W38E); experiment: as above; details: DRB1*0404, shared epitope positive
Description: as §3

[5] = molecular target: HLA-DRB1*0401 (Homo sapiens, UniProt P01903+P01911, A100K/A169T/F76Y/I96L/K127E/L162R/M171V/N62H/P40V/Q125Y/R42H/S133A/S149N/S66Y/V115G/V209L/W38E); experiment: as above; details: DRB1*0401, shared epitope positive
Description: as §3

[6] = molecular target: HLA-DRB1*0101 (Homo sapiens, UniProt P01903+P01911, A100R/D57E/F55L/F60I/F76Y/I96L/L162R/M171V/P40L/Q125E/R42F/V115G/Y59C); experiment: as above; details: DRB1*0101, shared epitope positive
Description: as §3

Row | change of peptide affinity on conversion of arginine to citrulline ([3]; vs Vim 65-77) | Substance | IFN-γ production [1] | T cell proliferative response [2] | proliferative response in presence of anti-DR antibody [2] | activation of T cells primed by Vim R70Cit ([2]; Vim R70Cit immunized mice, challenged with the unmodified peptide, 10 μg/ml) | relative affinity for purified MHC [3] | relative affinity for purified MHC [4] | relative affinity for purified MHC [5] | relative affinity for purified MHC [6]
1 |  | AGWLADRSVRYPI (Human) [P4D, human aggrecan peptide 280-292] | accompanied by IFN-γ production | strong proliferative response | inhibited |  |  |  |  | 
2 |  | SAVRARSSVPGVR (Human) [Vim 65-77, human vimentin peptide 65-77, unmodified] | did not induce T cell activation | did not induce T cell activation |  | could not be activated | low to intermediate affinity | low to intermediate affinity | low to intermediate affinity | low to intermediate affinity
3 | did not increase peptide affinity | SAVRACitSSVPGVR (SAVRA[Cit]SSVPGVR) [Vim R70Cit, altered human vimentin peptide 65-77] | accompanied by IFN-γ production | strong proliferative response | could also be inhibited |  |  | strikingly high affinity | strikingly high affinity | strikingly high affinity
4 |  | AGWLACitRSVRYPI (AGWLA[Cit]RSVRYPI) [P4Cit, altered human aggrecan peptide 280-292] | induced | induced | inhibited |  |  |  |  | 
5 |  | AGWLARRSVRYPI (Human) [P4R, altered human aggrecan peptide 280-292] | did not induce | did not induce |  |  |  |  |  | 
